CCCCCCCC(=O)NCC(=O)O
Details | solubility (mole fraction)
in 2-butanone, 273.15 K | 0.0123
in 2-butanone, 278.15 K | 0.0153
in 2-butanone, 283.15 K | 0.0199
in 2-butanone, 288.35 K | 0.0266
in 2-butanone, 293.05 K | 0.0304
in 2-butanone, 298.15 K | 0.0379
in 2-butanone, 303.15 K | 0.0457
in 2-butanone, 308.05 K | 0.0561
in 2-butanone, 313.25 K | 0.0667
in 2-butanone, 317.65 K | 0.0806
in 2-butanone, 323.15 K | 0.0951
in 2-pentanone, 273.15 K | 0.00491
in 2-pentanone, 278.15 K | 0.00666
in 2-pentanone, 283.15 K | 0.00984
in 2-pentanone, 288.35 K | 0.0148
in 2-pentanone, 293.05 K | 0.0178
in 2-pentanone, 298.15 K | 0.0244
in 2-pentanone, 303.15 K | 0.032
in 2-pentanone, 308.05 K | 0.0431
in 2-pentanone, 313.25 K | 0.0552
in 2-pentanone, 317.65 K | 0.0723
in 2-pentanone, 323.15 K | 0.0915
in acetone, 273.15 K | 0.0146
in acetone, 278.15 K | 0.0189
in acetone, 283.15 K | 0.0261
in acetone, 288.35 K | 0.0369
in acetone, 293.05 K | 0.0432
in acetone, 298.15 K | 0.0562
in acetone, 303.15 K | 0.0706
in acetone, 308.05 K | 0.0905
in acetone, 313.25 K | 0.111
in acetone, 317.65 K | 0.14
in acetone, 323.15 K | 0.171
in cyclohexanone, 273.15 K | 0.0112
in cyclohexanone, 278.15 K | 0.0149
in cyclohexanone, 283.15 K | 0.0214
in cyclohexanone, 288.35 K | 0.0315
in cyclohexanone, 293.05 K | 0.0378
in cyclohexanone, 298.15 K | 0.0508
in cyclohexanone, 303.15 K | 0.0656
in cyclohexanone, 308.05 K | 0.0866
in cyclohexanone, 313.25 K | 0.11
in cyclohexanone, 317.65 K | 0.141
in cyclohexanone, 323.15 K | 0.177
in cyclopentanone, 273.15 K | 0.0144
in cyclopentanone, 278.15 K | 0.019
in cyclopentanone, 283.15 K | 0.0269
in cyclopentanone, 288.35 K | 0.039
in cyclopentanone, 293.05 K | 0.0464
in cyclopentanone, 298.15 K | 0.0616
in cyclopentanone, 303.15 K | 0.0789
in cyclopentanone, 308.05 K | 0.103
in cyclopentanone, 313.25 K | 0.129
in cyclopentanone, 317.65 K | 0.164
in cyclopentanone, 323.15 K | 0.203
in ethanol, 273.15 K | 0.0116
in ethanol, 278.15 K | 0.0176
in ethanol, 283.15 K | 0.0266
in ethanol, 288.35 K | 0.0401
in ethanol, 293.05 K | 0.0575
in ethanol, 298.15 K | 0.0833
in ethanol, 303.15 K | 0.119
in ethanol, 308.05 K | 0.168
in ethanol, 313.25 K | 0.237
in ethanol, 317.65 K | 0.314
in ethanol, 323.15 K | 0.447
in ethyl acetate, 273.15 K | 0.00218
in ethyl acetate, 278.15 K | 0.00301
in ethyl acetate, 283.15 K | 0.00455
in ethyl acetate, 288.35 K | 0.00705
in ethyl acetate, 293.05 K | 0.00866
in ethyl acetate, 298.15 K | 0.0121
in ethyl acetate, 303.15 K | 0.0162
in ethyl acetate, 308.05 K | 0.0223
in ethyl acetate, 313.25 K | 0.029
in ethyl acetate, 317.65 K | 0.0389
in ethyl acetate, 323.15 K | 0.0502
in ethyl formate, 273.15 K | 0.0016
in ethyl formate, 278.15 K | 0.00226
in ethyl formate, 283.15 K | 0.00348
in ethyl formate, 288.35 K | 0.00555
in ethyl formate, 293.05 K | 0.00688
in ethyl formate, 298.15 K | 0.00981
in ethyl formate, 303.15 K | 0.0133
in ethyl formate, 308.05 K | 0.0186
in ethyl formate, 313.25 K | 0.0247
in ethyl formate, 317.65 K | 0.0336
in ethyl formate, 323.15 K | 0.0439
in isobutanol, 273.15 K | 0.0204
in isobutanol, 278.15 K | 0.0259
in isobutanol, 283.15 K | 0.0327
in isobutanol, 288.35 K | 0.0412
in isobutanol, 293.05 K | 0.0503
in isobutanol, 298.15 K | 0.0622
in isobutanol, 303.15 K | 0.0762
in isobutanol, 308.05 K | 0.0919
in isobutanol, 313.25 K | 0.112
in isobutanol, 317.65 K | 0.131
in isobutanol, 323.15 K | 0.159
in isopentanol, 273.15 K | 0.0276
in isopentanol, 278.15 K | 0.0347
in isopentanol, 283.15 K | 0.0434
in isopentanol, 288.35 K | 0.0543
in isopentanol, 293.05 K | 0.0657
in isopentanol, 298.15 K | 0.0805
in isopentanol, 303.15 K | 0.0978
in isopentanol, 308.05 K | 0.117
in isopentanol, 313.25 K | 0.142
in isopentanol, 317.65 K | 0.166
in isopentanol, 323.15 K | 0.2
in isopropanol, 273.15 K | 0.0153
in isopropanol, 278.15 K | 0.0193
in isopropanol, 283.15 K | 0.0239
in isopropanol, 288.35 K | 0.0298
in isopropanol, 293.05 K | 0.0362
in isopropanol, 298.15 K | 0.0441
in isopropanol, 303.15 K | 0.0533
in isopropanol, 308.05 K | 0.064
in isopropanol, 313.25 K | 0.0769
in isopropanol, 317.65 K | 0.0895
in isopropanol, 323.15 K | 0.108
in methanol, 273.15 K | 0.0347
in methanol, 278.15 K | 0.0478
in methanol, 283.15 K | 0.0653
in methanol, 288.35 K | 0.0891
in methanol, 293.05 K | 0.117
in methanol, 298.15 K | 0.156
in methanol, 303.15 K | 0.204
in methanol, 308.05 K | 0.263
in methanol, 313.25 K | 0.343
in methanol, 317.65 K | 0.425
in methanol, 323.15 K | 0.555
in methyl acetate, 273.15 K | 0.00203
in methyl acetate, 278.15 K | 0.00288
in methyl acetate, 283.15 K | 0.00448
in methyl acetate, 288.35 K | 0.00718
in methyl acetate, 293.05 K | 0.00895
in methyl acetate, 298.15 K | 0.0128
in methyl acetate, 303.15 K | 0.0174
in methyl acetate, 308.05 K | 0.0245
in methyl acetate, 313.25 K | 0.0327
in methyl acetate, 317.65 K | 0.0444
in methyl acetate, 323.15 K | 0.0586
in n-butanol, 273.15 K | 0.0228
in n-butanol, 278.15 K | 0.0313
in n-butanol, 283.15 K | 0.0425
in n-butanol, 288.35 K | 0.0577
in n-butanol, 293.05 K | 0.0755
in n-butanol, 298.15 K | 0.0993
in n-butanol, 303.15 K | 0.13
in n-butanol, 308.05 K | 0.167
in n-butanol, 313.25 K | 0.217
in n-butanol, 317.65 K | 0.268
in n-butanol, 323.15 K | 0.347
in n-pentanol, 273.15 K | 0.0226
in n-pentanol, 278.15 K | 0.0308
in n-pentanol, 283.15 K | 0.0413
in n-pentanol, 288.35 K | 0.0559
in n-pentanol, 293.05 K | 0.0724
in n-pentanol, 298.15 K | 0.095
in n-pentanol, 303.15 K | 0.123
in n-pentanol, 308.05 K | 0.157
in n-pentanol, 313.25 K | 0.202
in n-pentanol, 317.65 K | 0.249
in n-pentanol, 323.15 K | 0.32
in n-propanol, 273.15 K | 0.0174
in n-propanol, 278.15 K | 0.0254
in n-propanol, 283.15 K | 0.0363
in n-propanol, 288.35 K | 0.0522
in n-propanol, 293.05 K | 0.0715
in n-propanol, 298.15 K | 0.1
in n-propanol, 303.15 K | 0.137
in n-propanol, 308.05 K | 0.185
in n-propanol, 313.25 K | 0.251
in n-propanol, 317.65 K | 0.323
in n-propanol, 323.15 K | 0.439

Source: BigSolDB 2.1
